Assay results from article PMC12153294 (mBio, 2025).
Several values for one entry are separate records, joined by “and”; a condition that tells them apart may be missing. Identical values can stand only once. Like-named read-outs stand apart in the source and are kept apart here.

Tests used:
SARS-CoV-2 Mac1 [1] = biological target: T1, SARS-CoV-2 Mac1 (Severe acute respiratory syndrome coronavirus 2, UniProt P0DTD1); test: biochemical; conditions: inhibition of Mac1 binding to ADP-ribosylated peptide; average of 2 independent experiments; read-out: Mac1 IC50 (AlphaScreen assay)
[2] = AlphaScreen counter screen with Bn-His6 control peptide; conditions: same figure table as Mac1 IC50 (μM), NI not defined; for IC50: Bn-His peptide control, unit inferred
Description: The AlphaScreen reactions were carried out in 384-well plates (Alphaplate, PerkinElmer, Waltham, MA) in a total volume of 40 µL in buffer containing 25 mM HEPES (pH 7.4), 100 mM NaCl, 0.5 mM TCEP, 0.1% BSA, and 0.05% CHAPS. All reagents were prepared as 4× stocks, and 10 µL of each reagent was added to a final volume of 40 µL. All compounds were transferred acoustically using ECHO 555 (Beckman Inc) and preincubated after mixing with purified His-tagged macrodomain protein (250 nM) for 30 min at RT, followed by the addition of a 10 amino acid biotinylated and ADP-ribosylated peptide [ARTK(Bio) QTARK (Aoa-RADP)S] (Cambridge peptides) (625 nM). After 1 h incubation at RT, streptavidin-coated donor beads (7.5 µg/mL) and nickel chelate acceptor beads (7.5 µg/mL) (PerkinElmer AlphaScreen Histidine Detection Kit) were added under low light conditions, and plates were shaken at 400 rpm for 60 min at RT protected from light. Plates were kept covered and protected from light at all steps and read on the BioTek plate reader using an AlphaScreen 680 excitation/570 emission filter set. For counter screening of the compounds, 25 nM biotinylated and hexahistidine-tagged linker peptide (Bn-His6) (PerkinElmer) was added to the compounds, followed by the addition of beads as described above. For data analysis, the percent inhibition was normalized to positive (DMSO+ labeled peptide) and negative (DMSO + macrodomain + peptide, no ADPr) controls. The IC50 values were calculated via four-parametric non-linear regression analysis, constraining bottom (=0), top (=100), & Hillslope (=1) for all curves.

SARS-CoV-2 Mac1 [3] = biological target: T1, SARS-CoV-2 Mac1; test: Differential scanning fluorimetry (DSF) thermal shift assay; assay type: binding; conditions: thermal stability of SARS-CoV-2 Mac1, increasing compound concentrations
Description: Thermal shift assay with DSF involved the use of LightCycler 480 Instrument (Roche Diagnostics). In total, a 15 µL mixture containing 8 × SYPRO Orange (Invitrogen) and 10 µM macrodomain protein in buffer containing 20 mM HEPES-NaOH, pH 7.5, and various concentrations of ADP-ribose or hit compounds was mixed on ice in a 384-well PCR plate (Roche). Fluorescent signals were measured from 25 to 95°C in 0.2°C/30/S steps (excitation, 470–505 nm; detection, 540–700 nm). The main measurements were carried out in triplicate. Data evaluation and Tm determination involved the use of the Roche LightCycler 480 Protein Melting Analysis software, and data fitting calculations involved the use of single-site binding curve analysis on GraphPad Prism. The thermal shift (ΔTm) was calculated by subtracting the Tm values of the DMSO from the Tm values of the compounds.

[4] = LogD determination, shake-flask method; assay type: physicochemical; conditions: octanol/PBS, pH 7.4
Description: In total, 0.11 mg of each compound was weighed out into 2 mL centrifuge tubes; 1 mL of octanol-saturated PBS or 0.1M HCl was added to each centrifuge tube and vortexed to dissolve. Then, 0.5–1.0 mL of the PBS-saturated octanol was added to the 0.5–1.0 mL octanol-saturated PBS supernatant and vortexed. Next, 100 μL of the octanol-saturated PBS phase from each centrifuge tube was added to separate UPLC vials; 100 μL of 50:50 MP H2O:ACN was added to each vial and vortexed. The remaining octanol-saturated PBS layer was removed from the vial using a micropipette and stored in a separate vial, and 100 μL of the PBS-saturated octanol layer from each centrifuge tube was added to separate UPLC vials. In total, 100 μL of 50:50 MP H2O:ACN was added to each vial and vortexed. These procedures were repeated in triplicate and then analyzed by UPLC/UV-VIS.

JHMV-nLuc = assay type: cell-based, murine hepatitis virus (MHV)
DBT cells = test: Cell viability, MTT assay, DBT cells; assay type: cell-based; conditions: concentrations tested
Description: (§1) Delayed brain tumor (DBT), L929, and Calu3 Cellular metabolic activity was assessed using a CyQUANT MTT cell proliferation assay (Thermo Fisher Scientific) by following the manufacturer’s instructions.

L929 cells = test: Cell viability, MTT assay, L929 cells; assay type: cell-based; conditions: concentrations tested
Description: as §1

Mac1 = conditions: cited from earlier work
JHMV [5] = test: microbe, parasite or virus in culture; assay type: cell-based, murine hepatitis virus (MHV); conditions: for Concentration at which infectious virus production was inhibited: lowest effective concentration tested
JHMV [6] = assay type: cell-based, murine hepatitis virus (MHV); conditions: 150 μM
JHMV-WT [7] = test: microbe, parasite or virus in culture; assay type: cell-based, murine hepatitis virus (MHV); conditions: for EC50: Murine coronavirus, read-out: EC50, % JHMV-WT inhibition on DBT cells
JHMV-WT [8] = test: microbe, parasite or virus in culture; assay type: cell-based, murine hepatitis virus (MHV); conditions: for Inhibition of MHV, dose-response: 50 to 200 μM, stated for both DBT and L929 cells, better activity on DBT
[9] = system: SARS-CoV-2 (Wuhan strain); test: microbe, parasite or virus in culture; assay type: cell-based; conditions: for EC50: Severe acute respiratory syndrome coronavirus 2, Calu-3, presence of IFN-γ, estimated from fold reductions, read-out: EC50 against SARS-CoV-2
MERS-CoV = assay type: cell-based
Calu-3 cells = test: Cell viability, MTT assay, Calu-3 cells; assay type: cell-based
Description: as §1

[10] = read-out: Reported EC50; cited from earlier work
[11] = Calu-3, IFN-γ pre-treated (100 U), 12.5 μM
[12] = Calu-3, IFN-γ pre-treated (100 U), 25 μM

O=C(O)C(Cc1c[nH]c2ccccc12)Nc1ncnc2[nH]ccc12 (stereo not shown) [Compound 4a]
IC50 (SARS-CoV-2 Mac1 [1]): 6.1 µM
IC50 [2]: > 100 µM
DSF assay ΔTm (SARS-CoV-2 Mac1 [3]): 4.32 °C
logD [4]: -0.61
JHMV-nLuc replication (luciferase activity), words (JHMV-nLuc): did not affect JHMV replication
Cell viability (MTT), words (DBT cells): do not impact the viability
Cell viability (MTT), words (L929 cells): do not impact the viability
Mac1 enzyme activity (Mac1): inhibited Mac1 enzyme activity

O=C(O)C(Cc1c[nH]c2ccccc12)Nc1ncnc2[nH]ccc12 (stereo not shown) [Compound 4b]
IC50 (SARS-CoV-2 Mac1 [1]): 1.66 µM and < 2 µM
IC50 [2]: > 100 µM
Bn-His IC50 (AlphaScreen counter screen) ([2]; unit not given): almost no inhibition
DSF assay ΔTm (SARS-CoV-2 Mac1 [3]): 4.46 °C
JHMV-nLuc replication (luciferase activity), words (JHMV-nLuc): did not affect JHMV replication

COC(=O)[C@H](Cc1c[nH]c2ccccc12)Nc1ncnc2[nH]ccc12 [Compound 5a]
IC50 (SARS-CoV-2 Mac1 [1]): 14.1 µM
IC50 [2]: > 100 µM
DSF assay ΔTm (SARS-CoV-2 Mac1 [3]): 0.97 °C
logD [4]: 1.5
JHMV-nLuc replication (luciferase activity), words (JHMV-nLuc): inhibited JHMV replication
Concentration at which infectious virus production was inhibited (JHMV [5]): 200 µM
Cell viability (MTT), words (DBT cells): do not impact the viability
Cell viability (MTT), words (L929 cells): do not impact the viability
Fold change in PFU/mL, 5a versus DMSO (JHMV [6]; passage 1 (P1)): 3.17 X
Fold change in PFU/mL, 5a versus DMSO (JHMV [6]; passage 2 (P2)): -2.0 X
Fold change in PFU/mL, 5a versus DMSO (JHMV [6]; passage 3 (P3)): -1.1 X

CC(C)OC(=O)[C@H](Cc1c[nH]c2ccccc12)Nc1ncnc2[nH]ccc12 [Compound 5c]
IC50 (SARS-CoV-2 Mac1 [1]): 3.66 µM
IC50 [2]: 25.5 µM
DSF assay ΔTm (SARS-CoV-2 Mac1 [3]): 0.76 °C
logD [4]: 3.33
JHMV-nLuc replication (luciferase activity), words (JHMV-nLuc): inhibited JHMV replication
Decrease in replication (infectious virus) (JHMV-WT [7]; 50 μM, DBT cells): ~ 1.5 logs
EC50 (JHMV-WT [7]): 18.3 µM
Decrease in replication (infectious virus) (JHMV-WT [8]; 50 μM, L929 cells): ~3 logs
EC50 (JHMV-WT [8]; Murine coronavirus, L929, read-out: EC50, % JHMV-WT inhibition on L929 cells): 20 µM
EC50 (JHMV [5]; Murine coronavirus, 0 to 50 μM on DBT, and 17 Cl-1 cells, read-out: EC50 for inhibition of virus production): 10 to 20 µM
Concentration at which infectious virus production was inhibited (JHMV [5]): 25 µM
Reduction of viral titers [9, 11]: 3 fold
Reduction of viral titers [9, 12]: 7.5 fold
Reduction of viral titers ([9]; Calu-3, absence of IFN-γ, 25 μM): ~ 2 fold
EC50 [9]: ≤ 12.5 µM
MERS-CoV replication (MERS-CoV): did not inhibit MERS-CoV replication
Cell viability (MTT), words (DBT cells): do not impact the viability
Cell viability (MTT), words (L929 cells): do not impact the viability
Cell viability (MTT), words (Calu-3 cells): do not impact the viability

O=C(NCc1ccncc1)[C@H](Cc1c[nH]c2ccccc12)Nc1ncnc2[nH]ccc12 [Compound 6a]
IC50 (SARS-CoV-2 Mac1 [1]): 8.37 µM
IC50 [2]: > 100 µM
DSF assay ΔTm (SARS-CoV-2 Mac1 [3]): 1.29 °C

O=C(NCc1ccnc(Cl)c1)[C@H](Cc1c[nH]c2ccccc12)Nc1ncnc2[nH]ccc12 [Compound 6b]
IC50 (SARS-CoV-2 Mac1 [1]): 7.57 µM
IC50 [2]: > 100 µM
DSF assay ΔTm (SARS-CoV-2 Mac1 [3]): 1.57 °C

NC(=O)[C@H](Cc1c[nH]c2ccccc12)Nc1ncnc2[nH]ccc12 [Compound 6c]
IC50 (SARS-CoV-2 Mac1 [1]): 4.04 µM
IC50 [2]: > 100 µM
DSF assay ΔTm (SARS-CoV-2 Mac1 [3]): 3.06 °C

O=C(NCc1ccccn1)[C@H](Cc1c[nH]c2ccccc12)Nc1ncnc2[nH]ccc12 [Compound 6d]
IC50 (SARS-CoV-2 Mac1 [1]): 7.58 µM
IC50 [2]: 79.2 µM
DSF assay ΔTm (SARS-CoV-2 Mac1 [3]): 1.39 °C
JHMV-nLuc replication (luciferase activity), words (JHMV-nLuc): inhibited light production from MHV replication in a dose-dependent manner
EC50 (JHMV-WT [7]): 77.1 µM
Inhibition of MHV, dose-response (JHMV-WT [8]): inhibited MHV in a dose-dependent manner
Cell viability (MTT), words (DBT cells): do not impact the viability
Cell viability (MTT), words (L929 cells): do not impact the viability

O=C(NCc1ccccn1)[C@@H](Cc1c[nH]c2ccccc12)Nc1ncnc2[nH]ccc12 [Compound 6e]
IC50 (SARS-CoV-2 Mac1 [1]): 4.85 µM
IC50 [2]: 39.6 µM
DSF assay ΔTm (SARS-CoV-2 Mac1 [3]): 1.17 °C
JHMV-nLuc replication (luciferase activity), words (JHMV-nLuc): inhibited light production from MHV replication in a dose-dependent manner
EC50 (JHMV-WT [7]): 53.5 µM
Inhibition of MHV, dose-response (JHMV-WT [8]): inhibited MHV in a dose-dependent manner
Reduction of viral titers [9, 11]: 2.7 fold
Reduction of viral titers [9, 12]: 3.8 fold
Infectious virus production ([9]; Calu-3, absence of IFN-γ, 0 to 25 μM): did not reduce infectious virus production
EC50 [9]: ≤ 12.5 µM
MERS-CoV replication (MERS-CoV): did not inhibit MERS-CoV replication
Cell viability (MTT), words (DBT cells): do not impact the viability
Cell viability (MTT), words (L929 cells): do not impact the viability
Cell viability (MTT), words (Calu-3 cells): do not impact the viability

N#C[C@@]1(c2ccc3c(N)ncnn23)O[C@H](CO)[C@@H](O)[C@H]1O [GS-441524, reference compound]
JHMV-nLuc replication (luciferase activity), words (JHMV-nLuc): inhibited virus replication at all concentrations
EC50 [10]: ~840 nM
